Source: US20050059639A1, “Ophthalmic compositions and method for treating eye discomfort and pain” (priority 2003, published 2005)
Marks after values point to notes of the source that are not given here. One block for each compound: values may come before it.

How the values were obtained:
[1] = system: medial canthus of the eyelids; experiment: Sensory quality of the solution on the medial canthus of the eyelids / eye surface; type: in vivo, human; details: solution applied on the medial canthus of the eyelids
From the text: [table] In selecting a particular analog, it is desirable to have one that has a long duration of action (several hours) and minimal stinging and burning sensations. These parameters are not predicted by the cooling effect of these substances on the human tongue, but must be determined by experiment. […] Thus, the hexyl analog is the preferred therapeutic of the two. The other particularly preferred analogs that have the desired qualities of long duration of action and absence of stinging and burning effects are identified with an asterisk in Table 1.

[2] = system: closed eyes of volunteers; experiment: Eye drops applied to medial canthus of closed eyes, kept closed about 1 min; type: in vivo, human
Protocol: (§1) For trialkyl phosphine oxide eye drop solutions of this invention, I have discovered an indirect method of application as follows. The eye dropper is aimed at the medial canthus (nasal corner) of the eye, the eye is then closed, the dispenser is squeezed to emit the eye drops, and the eye kept closed for about 1 min. This method of application can substantially avoid stinging and burning sensations. Apparently, the adaptation period of about 1 min allows the sensory processes to develop tolerance to the initial stinging and burning stimuli. For example, if a 0.4 mg/ml solution of disec-butyl, n-hexyl-phosphine oxide [synonym, 1-(Di-sec-butyl-phosphinoyl)-hexane] in isotonic-buffered saline is dropped on the open eye, it causes stinging and burning for about 1 min. However, applied onto the corners of the eye, with the eyes closed for 1 min, these stinging and burning sensations are avoided. The medial canthus is preferred to the lateral canthus because the geometry of the orbit permits a longer residence time for the eye drop applied to the medial corner. Drops applied to the lateral canthus are less precisely located and rapidly dribble off the zygoma (cheekbone). A user can be instructed in this indirect method by including the instructions on packaging labels and/or inserts associated with the doses.
The solution, as in Example 1, was then used by another three subjects with the instruction to apply the droplets to the nasal corner of the eye (medial canthus), without touching the tip of the dispenser to the eyelid surface, to let the solution seep into the eyelids and eye surface but to keep eyes closed for at least one minute. The subjects reported slight sensations of stinging when the eyes were opened, effects that lasted for less than 1 minute, followed by sensations of coolness and comfort lasting at least two hours. The experiment was then repeated, but with a higher concentration of 0.2% of disec-butyl-n-hexyl-phosphine oxide.
A 0.2% (2.0 mg/ml) disec-butyl-n-heptyl-phosphine oxide eye drop solution was prepared by adding the compound to an isotonic solution of sodium chloride, 0.65% in deionized water, monobasic potassium phosphate/sodium hydroxide buffer, preserved with disodium EDTA and benzalkonium chloride. The liquid was individually aliquoted into a ¼ oz. bottle with a Yorker spout (E.D. Luce Packaging) suitable for droplet delivery. This solution was then applied to the closed eyes of three volunteers, with two to three drops of the solution applied to each eye. The subjects complained of stinging and burning sensations on the eye surface, lasting for about 2 min. A series of six solutions were then prepared in which six different hydrocarbon polyols were added to the parent 0.2% solution. The individual additions were 1.5% sucrose, 1.5% fructose, 1.5% dextrose, 1.5% lactose, 1.5% inositol, or 0.5% carboxymethylcellulose. […] There was some tearing, but no evidence of increased eye redness from the hydrocarbon polyols and subjective complaints of discomfort were minimal.

[3] = system: tongue of human volunteers; experiment: Cooling sensations when applied to the tongue of human volunteers; type: in vivo; details: for Duration of Action: duration of the cooling action on the tongue; for Relative Potency: reciprocal of threshold, normalized to unity for analogs with 1.25 μg/ml; for Threshold: threshold for producing cooling sensations on the tongue of human volunteers
Protocol: (§2) The therapeutic concentrations of the preferred analogs are in the range of 10 to 80 μg/ml […], but concentrations as low as 0.1 μg/ml may elicit effects in sensitive individuals.

[4] = system: dry eyes; experiment: Eye drops in contact lens user with dry eyes; type: in vivo, human; details: 0.2% solution with 0.5% carboxymethylcellulose
From the text: The subject of example 4 is a daily user of disposable soft contact lenses, has “dry eyes”, and is a constant user of Refresh Eyes®, an artificial tears solution with 0.5% carboxymethylcellulose stored in a unit dispenser. They were instructed on how to instill the eye drops into the nasal corner (medial canthus) of their closed eyes and how to avoid the initial discomforts of the solution. The subject, who is an internationally-ranked tennis player, volunteered to self-administer, by the medial canthus/closed eye method, a 0.2% solution disec-butyl-n-hexyl-phosphine oxide ophthalmic solution containing 0.5% carboxymethylcellulose.

[5] = system: ocular pain; experiment: Eye drops for ocular pain after refractive eye surgery (LASIK); type: in vivo, human
From the text: A subject, underwent bilateral refractive eye surgery (LASIK) for myopia in order to maintain their qualifications for special duties in the military. On the first day after surgery their eye surfaces and eyelids were bright red from dilated and enlarged blood vessels, but there was little pain. However, on the second day, the individual suffered excruciating pain from their eyes that was incapacitating and prevented them from going to work. This individual volunteered to apply eye drops of a 0.05% solution disec-butyl-n-hexyl-phosphine oxide ophthalamic into each eye for about every 6 hours for three days. They were instructed on how to instill the eye drops into the nasal corner (medial canthus) of their closed eyes and how to avoid the initial discomforts of the solution. […] They felt much better and was of the opinion that the eye drops had therapeutic value for ocular pain.

[6] = system: skin of upper eyes; experiment: Application to skin of the upper eyes by swabstick (eye strain, contact lens user); type: in vivo, human
Protocol: Another modification of drug delivery was discovered. […] Example 4 notes that topical application of a 5% solution of a trialkyl phosphine oxide dissolved in pure propylene glycol produces robust cooling when applied in this manner.
A subject was stuck in traffic for over 2 hours on a hot and sunny (95° to 97° F.) day in an old car without air-conditioning. They were a user of soft contact lenses. […] They wanted to go on-line to work on a database project, but their eyestrain hindered their ability to focus. They volunteered to apply onto the skin of their upper eyes a 5% solution of disec-butyl-n-hexyl-phosphine oxide dissolved in 100% propylene glycol. A cotton swabstick was used to dab the solution onto the surfaces of the skin with extra care not touch the margins of the eyelids or eye surface. After drug application, a robust cooling sensation developed in the eyes that lasted for about 3 hours. […] They also reported that they felt more alert and energetic.

[7] = system: eye disorders; experiment: Estimate of ideal therapeutic eye drop concentration to relieve eye disorders; type: in vivo, human; details: estimate of ideal therapeutic concentration applied as eye drops to relieve eye disorders
Protocol: as §2
The potency of certain specific trialkyl phosphine oxides, e.g. isopropyl, sec-butyl, n-octyl-phosphine oxide, in relieving eye discomfort is exceptionally high, on the order of 0.001%. In such situations, an alternative preferred description of an effective unit dose is 0.01 mg/ml or 10 μg/ml, which is equivalent to 0.001% weight percent.

[8] = system: opened eyes of volunteers; experiment: Eye drops applied directly to the opened eyes of volunteers; type: in vivo, human
Protocol: as §1
A 0.05% (0.5 mg/ml) disec-butyl-n-hexyl-phosphine oxide eye drop solution was prepared by adding the compound to an isotonic solution of sodium chloride, 0.65% in deionized water, monobasic potassium phosphate/sodium hydroxide buffer, preserved with disodium EDTA and benzalkonium chloride. The liquid was individually aliquoted into a ¼ oz. bottle with a Yorker spout (E.D. Luce Packaging) suitable for droplet delivery. This solution was applied to the opened eyes of three volunteers, with two to three drops of the solution applied to each eye. The subjects complained of stinging and burning sensations on the eye surface, lasting for about 2 min and requiring the subjects to shut their eyes. […]

[9] = system: conjunctivitis; experiment: Eye drops in subjects with allergic conjunctivitis; type: in vivo, human; details: for stinging sensations: 0.1% solution, medial canthus/closed eye, about every 8 hours
From the text: A subject, suffered from seasonal allergy. During the months of March through May, they would wake up in the morning sneezing, with a runny nose, and itchy eyes. The rhinitis, nasal congestion and obstruction were relieved to some extent by taking a Claritin® antihistamine tablet, but the symptoms of itchy, tearing, and red eyes were not. This individual applied, by the medial canthus/closed eye method in which they had been instructed, several drops of a 0.1% solution disec-butyl-n-pentyl-phosphine oxide ophthalmic eye drop solution, into each eye about every 8 hours for two days. […] They felt more clear-sighted and vigilant, and was of the opinion that the eye drops had therapeutic value for their conjunctivitis. Similar results were obtained with 3 additional subjects suffering from ocular allergies. A subject, suffered from perennial rhinitis that was aggravated by sinusitis, nasal surgery, and a prolonged course of antibiotics. They developed a generalized allergic condition with severe itchy rash on their back, dermatitis on their face (especially on their cheeks), and had itchy, puffy and red eyes. This individual applied, by the medial canthus/closed eye method in which they had been instructed, several drops of a 0.1% solution disec-butyl-pentyl-phosphine oxide ophthalmic solution into each eye for about every 8 hours for three days. […] The subject was of the opinion that the eye drops had therapeutic value for their conjunctivitis.

[10] = 0.2% solution, medial canthus/closed eye
[11] = 0.1% solution every 8 hours for two days, seasonal allergy

stinging and burning sensations ([2]; 0.4 mg/ml applied onto corners of the eye, eyes closed for 1 min): avoided
duration of slight stinging when eyes were opened ([2]; 0.05% solution, medial canthus, eyes closed at least one minute, three subjects): less than 1 minute
sensations of stinging and burning vs 0.05% [2, 10]: slightly increased
tearing [4]: no increased tearing
duration of stinging and burning ([8]; 0.4 mg/ml in isotonic-buffered saline dropped on the open eye): about 1 min
duration of stinging and burning sensations on the eye surface ([8]; 0.05% (0.5 mg/ml) solution, 2-3 drops, opened eyes, three volunteers): about 2 min
redness / vasodilatation on eye surface or eyelids ([8]; 0.05% solution, opened eyes): no evidence of increased redness
SMILES: CCCCCCP(=O)(C(C)CC)C(C)CC (stereo not shown) [n-C6H13 / sec-C4H9 / sec-C4H9, 1-(Di-sec-butyl-phosphinoyl)-hexane]
Sensory Quality [1]: cool/sting
duration of sensations of coolness and comfort ([2]; 0.05% solution, medial canthus/closed eye): at least two
tearing, irritation or redness [2, 10]: no signs of tearing was observed, nor of signs of irritation or redness
Duration of Action [3]: 20 min
potency on the human tongue (comparison of the two analogs) ([3]; hexyl vs heptyl analog): about equipotent
Relative Potency [3]: 1
Threshold [3]: 1.25 µg/mL
effect on eye dryness (subject's opinion) [4]: useful to alleviate eye dryness
reported sensations ([4]; medial canthus/closed eye, one subject): slight tingling in their eyelids followed by refreshing sensations in their eyelids and eye surface
adverse effects ([5]; 0.05% solution about every 6 hours for three days after LASIK): no significant adverse effects
acute pain from the eye surface ([5]; 0.05% solution about every 6 hours for three days, second day after LASIK, medial canthus/closed eye): significantly diminished within minutes
duration of robust cooling sensation in the eyes ([6]; 5% solution in 100% propylene glycol dabbed on skin of upper eyes, one subject): about 3 hours
effect on eye fatigue, irritation and discomfort ([6]; 5% solution in 100% propylene glycol on skin of upper eyes): alleviated their sense of eye fatigue, irritation, and discomfort
Eye Therapy [7]: 45 µg/mL

stinging sensations [9]: initial mild sensation of “stinging”
stinging sensations ([9]; listed as disec-butyl-pentyl-phosphine oxide): No significant stinging sensations
SMILES: CCCCCP(=O)(C(C)CC)C(C)CC (stereo not shown) [n-C5H11 / sec-C4H9 / sec-C4H9, disec-butyl-n-pentyl-phosphine oxide]
Sensory Quality [1]: cool only
effect on eye discomfort ([9]; 0.1% solution every 8 hours for three days, generalized allergic condition): relief of discomfort
itching [9, 11]: substantially reduced
redness [9, 11]: diminished
Duration of Action [3]: 10 min
Relative Potency [3]: 1
Threshold [3]: 1.25 µg/mL
Eye Therapy [7]: 60* μg/ml
